# “Also recorded” adds a separate entry of the source.
# Test system: HUVEC cells
# Assay: Immunostaining of P-selectin and VCAM-1 on endothelial cells upon TNF-α treatment
# Type: cell-based, human
# Conditions: TNF-α 20 ng/mL, 4 hrs, confocal
# Experimental: Immunostaining: To determine P-selectin and VCAM-1 expression on endothelial cells upon TNF-α-treatment, HUVEC cells were cultured on a cover glass and treated with 20 ng/mL of TNF-α at 37° C. for 4 hrs. The cells were fixed with 4% paraformaldehyde and blocked using a 5% BSA solution in PBS for 30 min. The cells were then incubated with primary antibodies against P-selectin or VCAM-1 for 1 hr at room temperature. The cells were incubated with fluorescence-labeled secondary antibodies for 1 hr at room temperature. The cells were washed, mounted with a mounting medium, and observed using a confocal microscope (Zeiss, Dublin, Calif.).
# Potential advantages of using hMSC-derived exosomes would include the utilization of the homing properties of hMSCs to inflamed endothelia that are frequently found in cancerous regions. […] Human umbilical vein endothelial cells (HUVEC) were used to determine if the exosomes could potentially interact with the cells upon activation using TNF-α. TNF-α is known to induce expression of vascular cell adhesion molecule-1 (VCAM-1) and P-selectin that are directly involved in the hMSC binding to endothelial layers. The expression of VLA-4 and CD162 that are ligands binding to VCAM-1 and P-selectin, respectively, from the exosomes was confirmed using western blotting (FIG. 9).
substance,measurement,value
TNF-α,P-selectin expression,overexpress; also recorded: increased
same,VCAM-1 expression,overexpress; also recorded: increased

# — patent US11344627B2, “Dendrimer-exosome hybrid nanoparticles as a delivery platform” (WISCONSIN ALUMNI RESEARCH FOUNDATION, priority 2017, dated 2022)
